From patent publication US11419902B2, “Compositions comprising bacterial strains” (4D Pharma Research Limited, priority 2018, dated 2022)

Assays:
[1] = test system: MAP2; test: MAP2 gene expression in 451Lu cell line (qPCR); type: cell-based; details: relative to the cell line only negative control
Method: (§1) Cells were plated in 12-well plates at density of 2×10^5 cells/well. After 24 h cells were treated with either DMSO or Vemurafenib (662005; EMD Millipore; VEMU; SKMEL28, SKMEL31, 451Lu, HT29 (1 μM) SKMEL2 (10 μM) or Azacytidine-C (A3656; Sigma Aldrich; AzaC; 5 μg/ml) or both drugs (VEMU+Aza) together, in presence of 10% bacteria supernatants or absence of it (YCFA+). Total RNA was extracted using the RNeasy mini kit (Qiagen, Manchester, UK) according to the manufacturer's instructions, and the RNA concentration was determined by spectrophotometer at 260/280 nm (NanoDrop ND-1000; Thermo Fisher Scientific, Loughborough). For mRNA expression analysis, cDNA was prepared from 2000 ng of total RNA using the High-Capacity cDNA reverse transcription kit (Thermo Fisher, Loughborough) according to the manufacturer's instructions. The reverse transcription reactions were performed in a thermocycler (Biometra, Germany) at 25° C. for 10 min, 37° C. for 120 min, and 85° C. for 5 min Resulting cDNA was amplified in duplicates by the SYBR-Green PCR assay, and products were detected on QuantStudio 6 flex real-time PCR machine (Applied Biosystems, UK) using a standardised profile (initial denaturation of 95° C. for 10 minutes, followed by 40 cycles of 10 seconds of denaturation at 95° C. and 30 seconds of annealing/extension at 65° C.). […]

[2] = test system: IL-6, CD11b, TLR4; test: Gene expression in the brain of BALB/c mice (qPCR); type: in vivo; details: vs vehicle control
Method: BALB/c mice were administered live biotherapeutic and tissues were isolated for analysis of gene expression using qPCR.

[3] = test system: histone deacetylase; test: Histone deacetylase activity in HT-29 cells; type: cell-based; details: 10% cell free supernatant, 48 hours
Method: Cell free supernatants of stationary phase bacterial cultures were isolated by centrifugation and filtering in a 0.22 uM filter. HT-29 cells were used 3 days post confluence and stepped down in 1 mL DTS 24 hours prior to commencement of the experiment. The HT-29 cells were challenged with 10% cell free supernatant diluted in DTS and was is left to incubate for 48 hours. […] proteins were then extracted using the Sigma Aldrich […] extraction kit and samples were snap frozen prior to HDAC activity measurement. HDAC activity was assessed fluorometrically using the Sigma Aldrich (UK) kit.

[4] = test system: HDAC; test: HDAC inhibition on whole HT-29 cells; type: cell-based
Method: Pure cultures of bacteria were grown anaerobically in YCFA+ broth until they reached their stationary growth phase. Cultures were centrifuged at 5,000×g for 5 minutes and the cell-free supernatant (CFS) was filtered using a […] (Millipore, UK). 1 mL aliquots of the CFS were stored at −80° C. until use. Sodium butyrate, hexanoic and valeric acid were obtained from Sigma Aldrich (UK) and suspensions were prepared in YCFA+ broth.
To investigate which metabolites were responsible for the strain-induced HDAC inhibition, different concentrations of hexanoic acid, valeric acid and sodium butyrate were measured for their HDAC inhibition on whole HT-29 cells and on HT-29 cell lysate.

[5] = target: T1, HDAC2 (Homo sapiens, UniProt Q92769); test: Specific HDAC activity analysis (fluorogenic assay kit); type: biochemical; details: cell free supernatant diluted 1 in 10
T1 construct: purchased BPS Bioscience, CA
Method: (§2) Specific HDAC inhibition activity was analysed for HDAC1, 2, 3, 4, 5, 6, 9 using fluorogenic assay kits for each type of HDAC (BPS Bioscience, CA). Assays were conducted according to manufacturer's instructions and each sample were performed in replicates. Cell free supernatants were diluted 1 in 10 and exposed to specific HDAC proteins provided in the kit to maintain consistency between methods.
(§3) The specific HDAC inhibition profile of the test bacteria strain was investigated. Specific HDAC inhibition assays (BPS Bioscience, CA) were carried out for Class I and Class II HDACs. The ability of the bacterial strain to inhibit HDAC enzymes was compared to butyrate, hexanoic and valeric acid.

[6] = test system: class II HDACs; test: as above; type: biochemical; details: data not shown
Method: as §2, §3

[7] = target: T2, HDAC3 (Homo sapiens, UniProt O15379); test: as above; type: biochemical; details: cell free supernatant diluted 1 in 10
T2 construct: purchased BPS Bioscience, CA
Method: as §2, §3

[8] = target: T3, HDAC1 (Homo sapiens, UniProt Q13547); test: as above; type: biochemical; details: cell free supernatant diluted 1 in 10
T3 construct: purchased BPS Bioscience, CA
Method: as §2, §3

[9] = test system: MAP2; test: MAP2 gene expression in SKMEL2 cell line (qPCR); type: cell-based; details: SKMEL2, relative to both negative controls (cell line only, and YCFA+)
Method: as §1

T3 sequence (Q13547 whole entry): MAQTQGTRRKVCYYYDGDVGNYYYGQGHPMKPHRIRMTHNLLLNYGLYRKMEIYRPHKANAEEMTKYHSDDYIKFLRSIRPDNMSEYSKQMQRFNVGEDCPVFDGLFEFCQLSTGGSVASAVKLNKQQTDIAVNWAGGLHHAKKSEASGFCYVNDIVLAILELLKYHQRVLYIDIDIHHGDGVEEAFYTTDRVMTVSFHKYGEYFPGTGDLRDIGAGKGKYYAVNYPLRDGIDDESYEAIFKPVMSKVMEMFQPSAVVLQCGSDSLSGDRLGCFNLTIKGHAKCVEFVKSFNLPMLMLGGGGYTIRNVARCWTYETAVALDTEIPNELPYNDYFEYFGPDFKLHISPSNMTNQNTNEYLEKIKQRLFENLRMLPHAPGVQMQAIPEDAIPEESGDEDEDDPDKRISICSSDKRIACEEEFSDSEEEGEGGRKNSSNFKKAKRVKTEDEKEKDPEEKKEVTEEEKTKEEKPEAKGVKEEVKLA
T2 sequence (O15379 whole entry): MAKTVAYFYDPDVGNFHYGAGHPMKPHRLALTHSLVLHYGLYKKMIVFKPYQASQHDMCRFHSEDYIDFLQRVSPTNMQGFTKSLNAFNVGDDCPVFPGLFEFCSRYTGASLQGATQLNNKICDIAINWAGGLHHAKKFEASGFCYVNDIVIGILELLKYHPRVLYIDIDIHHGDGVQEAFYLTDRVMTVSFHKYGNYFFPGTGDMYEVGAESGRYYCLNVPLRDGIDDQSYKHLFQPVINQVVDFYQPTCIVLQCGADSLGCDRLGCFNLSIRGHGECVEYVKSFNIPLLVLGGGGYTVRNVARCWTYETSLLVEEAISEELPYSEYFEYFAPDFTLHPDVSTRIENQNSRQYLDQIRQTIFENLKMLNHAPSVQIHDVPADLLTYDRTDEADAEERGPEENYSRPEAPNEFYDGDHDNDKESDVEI
T2 sequence (Q9Y618 395-489 partner limits assumed): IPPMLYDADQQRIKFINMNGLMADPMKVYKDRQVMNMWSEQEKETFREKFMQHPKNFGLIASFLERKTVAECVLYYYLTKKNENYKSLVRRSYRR
T1 sequence (Q92769 whole entry): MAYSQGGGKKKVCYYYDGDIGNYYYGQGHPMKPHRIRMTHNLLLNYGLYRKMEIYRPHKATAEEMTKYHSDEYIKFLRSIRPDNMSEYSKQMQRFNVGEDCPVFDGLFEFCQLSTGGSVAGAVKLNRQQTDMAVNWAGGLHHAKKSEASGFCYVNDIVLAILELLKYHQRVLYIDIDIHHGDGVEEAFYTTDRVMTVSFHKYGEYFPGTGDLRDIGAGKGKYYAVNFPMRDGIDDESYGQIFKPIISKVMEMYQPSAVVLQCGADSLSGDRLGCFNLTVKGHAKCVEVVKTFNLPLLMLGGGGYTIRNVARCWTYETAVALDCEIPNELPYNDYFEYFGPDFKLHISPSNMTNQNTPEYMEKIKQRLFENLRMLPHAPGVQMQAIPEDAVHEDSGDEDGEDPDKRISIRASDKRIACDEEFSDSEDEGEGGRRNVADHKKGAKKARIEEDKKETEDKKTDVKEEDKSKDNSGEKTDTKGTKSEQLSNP

How did the MAP2 gene expression [1] turn out when Megasphaera massiliensis MRx0029 was run?
Its MAP2 gene expression is “increased MAP2 gene expression”.

And the “TLR4 expression in the amygdala” value [2]?
Its value is “significantly increase TLR4 expression”.

And the “levels of histone deacetylase activity” value [3]?
Its value is “able reduce the levels of histone deacetylase activity”.

And the “HDAC inhibition on whole HT-29 cells” value [4]?
The value was “strong HDAC inhibition”.

And the “inhibition of HDAC2” value [5]?
The value was “very potent inhibitor”.

And the “inhibition of class II HDACs” value [6]?
Its value is “not as significant”.

And the “inhibition of HDAC3” value [7]?
The value was “very potent inhibitor”.

And the “inhibition of HDAC1” value [8]?
Its value is “very potent inhibitor”.

And the MAP2 gene expression [9]?
The MAP2 gene expression was “increased MAP2 gene expression”.
